Test results published in patent US10752884B2, “Method of inducing beta cells from urine-derived cells using small molecules” (UNIVERSITY OF SOUTH AUSTRALIA, priority 2014, dated 2020).
pIC50: −log10 of the molar value.

How the values were obtained:
[1] = target: ALK1 (Homo sapiens, UniProt P37023); settings: cited from earlier work
[2] = test system: ALK4; settings: cited from earlier work
[3] = target: ALK6 (Homo sapiens, UniProt O00238); settings: cited from earlier work
[4] = test system: TGF-β-induced EMT; settings: via the inhibition of Smad2 phosphorylation; cited from earlier work
[5] = target: T1, ALK2 (Homo sapiens, UniProt Q04771); settings: cited from earlier work
T1 sequence (Q04771 21-509): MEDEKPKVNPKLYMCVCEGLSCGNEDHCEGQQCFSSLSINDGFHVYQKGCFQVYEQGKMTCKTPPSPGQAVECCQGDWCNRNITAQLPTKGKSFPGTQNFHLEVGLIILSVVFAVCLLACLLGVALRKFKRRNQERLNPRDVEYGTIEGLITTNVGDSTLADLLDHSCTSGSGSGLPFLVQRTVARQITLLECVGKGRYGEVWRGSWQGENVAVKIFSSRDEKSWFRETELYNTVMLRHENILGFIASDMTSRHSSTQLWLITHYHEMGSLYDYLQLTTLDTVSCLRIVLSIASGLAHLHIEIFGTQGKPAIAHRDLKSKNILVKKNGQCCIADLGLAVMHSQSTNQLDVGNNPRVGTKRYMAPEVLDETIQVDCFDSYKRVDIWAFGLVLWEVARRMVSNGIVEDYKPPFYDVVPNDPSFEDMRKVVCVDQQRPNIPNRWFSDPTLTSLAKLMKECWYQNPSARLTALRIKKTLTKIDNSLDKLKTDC

[6] = target: ALK3 (Homo sapiens, UniProt P36894); settings: cited from earlier work
ALK3, sequence (P36894 24-532): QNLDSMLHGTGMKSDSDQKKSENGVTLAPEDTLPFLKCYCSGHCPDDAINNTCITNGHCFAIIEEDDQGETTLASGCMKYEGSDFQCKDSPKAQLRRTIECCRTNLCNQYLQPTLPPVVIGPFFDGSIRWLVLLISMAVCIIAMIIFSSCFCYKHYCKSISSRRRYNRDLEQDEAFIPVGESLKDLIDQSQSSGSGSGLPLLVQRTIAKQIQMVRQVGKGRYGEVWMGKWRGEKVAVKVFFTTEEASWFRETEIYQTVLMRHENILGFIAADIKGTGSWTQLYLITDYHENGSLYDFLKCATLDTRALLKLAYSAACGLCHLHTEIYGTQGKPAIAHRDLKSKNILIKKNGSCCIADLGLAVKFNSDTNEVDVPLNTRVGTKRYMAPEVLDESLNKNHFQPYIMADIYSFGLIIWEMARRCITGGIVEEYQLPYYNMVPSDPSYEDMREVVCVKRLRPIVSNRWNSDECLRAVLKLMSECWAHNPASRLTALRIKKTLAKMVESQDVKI

[7] = test system: human urine cells (HUC); assay: Secondary induction, cell morphology by phase contrast microscopy; assay type: cell-based; settings: after Example 2 primary induction; 330 nm Indolactam V, four days
Method: HUC-M-35 P5 cells were prepared using the primary induction protocol described in Example 2. The cells were then cultured in a secondary induction medium containing DMEM, […] Indolactam V, 1×2 mM L-glutamine (Life Technologies, Cat No. 25030-081), and 1×B27 (Life Technologies, Cat No. 17504044) and p/s as detailed above for four days. The morphology of the resultant cells was examined by phase contrast microscopy.
HUC-M-35 P5 cells were induced using the primary induction protocol described in Example 2. […] The morphology of the resultant cells was assessed by phase contrast microscopy.

ALK6, sequence (O00238 14-502): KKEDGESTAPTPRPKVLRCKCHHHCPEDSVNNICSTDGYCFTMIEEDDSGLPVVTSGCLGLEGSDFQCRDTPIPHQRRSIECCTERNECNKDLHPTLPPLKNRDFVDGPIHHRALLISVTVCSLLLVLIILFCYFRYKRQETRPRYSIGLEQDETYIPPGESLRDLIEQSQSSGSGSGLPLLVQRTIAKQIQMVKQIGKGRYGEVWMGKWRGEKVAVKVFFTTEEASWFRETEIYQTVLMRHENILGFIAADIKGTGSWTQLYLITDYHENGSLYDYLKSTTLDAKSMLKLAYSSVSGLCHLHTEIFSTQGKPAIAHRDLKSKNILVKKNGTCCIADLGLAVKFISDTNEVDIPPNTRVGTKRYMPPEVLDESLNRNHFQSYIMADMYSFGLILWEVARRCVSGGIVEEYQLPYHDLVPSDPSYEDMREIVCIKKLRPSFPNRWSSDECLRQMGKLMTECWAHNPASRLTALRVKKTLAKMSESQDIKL
ALK1, sequence (P37023 22-503, species assumed): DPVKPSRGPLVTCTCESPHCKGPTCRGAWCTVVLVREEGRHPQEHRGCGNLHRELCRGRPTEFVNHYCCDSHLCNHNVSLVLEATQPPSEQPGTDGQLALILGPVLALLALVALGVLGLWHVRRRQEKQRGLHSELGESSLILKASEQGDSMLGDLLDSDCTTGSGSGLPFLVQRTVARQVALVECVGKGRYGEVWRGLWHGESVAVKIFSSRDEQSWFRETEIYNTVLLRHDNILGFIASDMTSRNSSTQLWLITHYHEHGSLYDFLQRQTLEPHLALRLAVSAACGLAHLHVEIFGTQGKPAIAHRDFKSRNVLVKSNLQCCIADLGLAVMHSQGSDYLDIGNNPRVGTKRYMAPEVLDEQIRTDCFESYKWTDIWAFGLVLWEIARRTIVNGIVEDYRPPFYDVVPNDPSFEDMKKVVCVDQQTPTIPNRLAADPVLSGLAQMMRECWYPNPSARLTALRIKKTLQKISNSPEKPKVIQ

Row | Structure (SMILES) | inhibition of ALK1 [1] | pIC50 [2] | inhibition of ALK6 [3] | inhibition of TGF-β-induced EMT [4] | inhibition of ALK2 [5] | inhibition of ALK3 [6] | cell morphology following secondary induction [7]
1 | Cc1cccc(-c2nn(C(=S)Nc3ccccc3)cc2-c2ccnc3ccccc23)n1 [A83-01, 3-(6-Methyl-2-pyridinyl)-N-phenyl-4-(4-quinolinyl)-1H-pyrazole-1-carbothioamide] | weakly inhibits | 7.92 | weakly inhibits | inhibit | weakly inhibits | weakly inhibits | –
2 | CC(C)[C@H]1C(=O)N[C@H](CO)Cc2c[nH]c3cccc(c23)N1C [Indolactam V, (2S,5S)-1,2,4,5,6,8-Hexahydro-5-(hydroxymethyl)-1-methyl-2-(1-methylethyl)-3H-pyrrolo[4,3,2-gh]-1,4-benzodiazonin-3-one] | – | – | – | – | – | – | some cells appeared to have an islet cell morphology
